The conditions of test [1]: reputed; vs cyclosporin; cited from earlier work.
Test [2] relates to FK-506 immunosuppressive activity. In words: antagonist activity versus the FK-506 immunosuppressive activity by the T-cell proliferation assay. It is filed as cell-based. The settings on record: qualitative.
The subject of test [3] is mouse T lymphocytes (splenic T-cells). In words: T-cell proliferation assay (ionomycin plus PMA induced, tritiated thymidine uptake). It is filed as cell-based, mouse (C57Bl/6). How it is done:
The principle of this assay is to measure the proliferation of mouse T lumphocytes stimulated with the combination of ionomycin plus PMA.
Cells were pelleted by centrifugation at 1500 rpm for 8 minutes. Contaminating red cells were removed by treating the pellet with ammonium chloride lysing buffer (GIBCO) for 2 minutes at 4° C. Cold medium was added and cells were again centrifuged at 1500 rpm for 8 minutes. T lumphocytes were then isolated by separation of the cell suspension on nylon wool columns as follows: Nylon wool columns were prepared by packing approximately 4 grams of washed and dried nylon wool into 20 ml plastic syringes. The columns were sterilized by autoclaving at 250° F. for 30 minutes. Nylon wool columns were wetted with warm (37° C.) culture medium and rinsed with the same medium. Washed spleen cells resuspended in warm medium were slowly applied to the nylon wool. The columns were then incubated in an upright position at 37° C. for 1 hours. […]
The cell suspension was immediately distributed into 96 well flat-bottom microculture plates (Costar) at 200 μl/well. […] Radioactivity of filter discs corresponding to individual wells was measured by standard liquid scintillation counting method (Betacounter). Mean counts per minute of replicate wells were calculated and the results expressed as percent inhibition of tritiated thymidine uptake (proliferation) as follows: [formula]

Molecules are shown by their SMILES.

On to `C=CC[C@@H]1/C=C(\C)C[C@H](C)C[C@H](OC)[C@H]2O[C@@](O)(C(=O)C(=O)N3CCCC[C@H]3C(=O)O[C@H](/C(C)=C/[C@@H]3CC[C@@H](O)[C@H](OC)C3)[C@H](C)[C@@H](O)CC1=O)[C@H](C)C[C@@H]2OC` [FR900506], for which the “effectiveness relative to cyclosporin” value in test [1] is reported as 100 times.
With `CC[C@@H]1C=C2COC1(O)C[C@H](O)[C@@H](C)[C@@H](/C(C)=C/[C@@H]1CC[C@@H](O)[C@H](OC)C1)OC(=O)[C@@H]1CCCCN1C(=O)C(=O)[C@]1(O)O[C@H]([C@@H](OC)C[C@@H](C)C2)[C@@H](OC)C[C@H]1C` [Compound I], the “antagonist activity versus FK-506 immunosuppressive activity” value in test [2] was “antagonist pharmacological activity”. In addition, the “reversal of inhibition of T-cell proliferation by IL2” value in test [3] (50 units/ml recombinant IL2 added at initiation of culture) is listed as “reversed”. For the same compound, the “inhibition of T-cell activation” value in test [3] (ionomycin + PMA, qualitative) was “positive inhibition of T-cell activation”.

The values above are taken from patent US5221625A, “Cyclcic FR-900520 microbial biotransformation agent” (Merck & Co., Inc., priority 1992, dated 1993).
